Data set [1] concerns BxPC-3. Put plainly: Trypan blue staining. Type of data set: cell-based, human. The conditions noted are these: BxPC-3, 0.5, 1 and 2 × IC50, 24 h, 37 °C. Here is the method: (§1) Trypan blue is a diazo dye that has been used for viability assessment for years. Viable cells with undamaged cellular membranes are resistant to staining and thus allow the discrimination from blue-stained dead cells with disrupted membranes. Cells were seeded at a density of 1.5 × 10^5/mL onto 12-well plates. […] Cells were left for incubation for another 24 h (37 °C; 5% CO2). After exposure, they were transferred to Eppendorf tubes and centrifuged at 1400 rpm for 10 min at 4 °C. Afterward, the supernatant was removed, and the precipitate was diluted in PBS. Cell suspensions were mixed with 0.4% trypan blue solution in a 1:1 ratio. Approximately 300 cells were counted under a light microscope. The experiment was repeated three times. The results were represented as mean viability (%) with SD values.

In data set [2] the test system is PC-3. Description: Trypan blue staining. The data set is classed as cell-based, human. The conditions noted are these: PC-3, 0.5, 1 and 2 × IC50, 24 h, 37 °C. Here is the method: as §1
Another data set concerns WI-38. Put plainly: Trypan blue staining. Type of data set: cell-based, human. The conditions noted are these: WI-38, 0.5, 1 and 2 × IC50, 24 h, 37 °C. Here is the method: as §1
In data set [3] the test system is BxPC-3. Description: Neutral comet assay. The data set is classed as cell-based, human. The conditions noted are these: human, 24 h. Here is the method:
(§2) The majority of the neutral comet assay steps were performed analogously to the alkaline version except for the electrophoresis step. In contrast to the alkaline comet assay, electrophoresis was performed in a buffer comprising 100 mM TRIS and 300 mM sodium acetate with the pH of the solution adjusted to 9.0 by glacial acetic acid, as described previously by Bukowski et al.. Electrophoresis was run at 12 V, 50 mA for 60 min. Cells were washed with distilled water twice, stained with DAPI, and analyzed as described for the alkaline comet assay.
CASP: Comet Assay Software Project Lab (http://casplab.com (accessed on 1 January 2023)) was used to establish the median value of DNA (%) in comet tails. This parameter provides a very clear picture of what the actual appearance of the comets was like. […] The data were presented with an interquartile range and minimal and maximal values using Graphpad Prism 7. Statistical analysis of comet assay results was performed using Statistica software. The Kruskal–Wallis test was used to show a statistically significant difference between groups. Multiple comparisons using mean ranks for all groups module of Statistica software were used. A p-value less than 0.05 was considered statistically significant. In all groups, N > 200.

The subject of data set [4] is PC-3. Description: Neutral comet assay. The data set is classed as cell-based, human. To be noted: human, 24 h. The protocol:
as §2
[…] This parameter provides a very clear picture of what the actual appearance of the comets was like. […] The data were presented with an interquartile range and minimal and maximal values using Graphpad Prism 7. Statistical analysis of comet assay results was performed using Statistica software. The Kruskal–Wallis test was used to show a statistically significant difference between groups. Multiple comparisons using mean ranks for all groups module of Statistica software were used. A p-value less than 0.05 was considered statistically significant. In all groups, N > 200.

The test system of data set [5] is PC-3. Also noted: method as in PMID 35682571. To be noted: PC-3, 72 h incubation, MTT assay, mean; read-out: IC50 Value ± SD; cited from earlier work.

For `Cc1nn(-c2ccc(S(=O)(=O)NCCN3CCOCC3)cc2)c2nn3nnnc3nc12` [MM134], the cell viability result in the data set with BxPC-3 [1], with PC-3 [2] and in the data set with WI-38 was “highest reduction in cell viability” throughout. Moreover, the “mean tail DNA % (double-strand breaks)” value in the data set on BxPC-3 [3] is on record as 5.11%; in the data set on PC-3 [4], 5.72%. In addition, the “median tail DNA % (double-strand breaks)” value in the data set on BxPC-3 [3] is listed as 4.21%; in the data set on PC-3 [4], 4.09%. Besides, the IC50 with PC-3 [5] was 160 ± 20 nM.
